Data: patent EP0166969A2, “Haemostyptic” (priority 1984, dated 1986)
Entries after “also recorded” stand apart in the source; their conditions may differ.

Key:
Rattenleber = assay: Bleeding time and blood loss in rats according to Ennen (1981), liver parenchymal bleeding; assay type: in vivo, Ratten; settings: tested oral and IV, standard solutions suspended in 0,9% saline, route of the values not stated
Source text: (§1) Unter einem Hämostypticum versteht man Mittel zur Blutstillung, die sowohl die Blutungszeit als auch den Blutverlust bei mechanischen Verletzungen herabsetzen. Die Blutgerinnung ist ein in den letzten Jahren intensiv untersuchter komplexer Vorgang, der sich in verschiedenster Weise beeinflussen läßt. Die Blutstillung und der Blutverlust hängen wiederum in erster Linie vom Umfang und der Geschwindigkeit der Blutgerinnung ab, jedoch spielen hier auch noch weitere Faktoren mit hinein, die bisher noch nicht ausreichend untersucht und geklärt werden konnten. Eine besondere Schwierigkeit bei der Untersuchung von Hämostyptica ist die Erarbeitung von zuverlässigen und reproduzierbaren Versuchsbedingungen am Menschen und am Tier. Eine umfassende Zusammenstellung der bisher bekannten Methoden sowie die Beschreibung einer verbesserten Methode an der Ratte wird beschrieben in der Dissertation von Ennen 1981, am Institut für Pharmakologie, Toxikologie und Pharmazie der Tierärtzlichen Hochschule Hannover unter Leitung von Prof. Dr. K. Kaemmerer (Methodenbeitrag zur Bestimmung von Blutungszeit und Blutverlust bei Leberparenchymblutungen kleiner Versuchstiere). Im Rahmen dieser Untersuchungen wurden auch verschiedene bekannte Hämostasesysteme vergleichend untersucht. Zu den untersuchten Produkten gehörte auch das Hämostypticum Revici, welches von der Anmelderin seit Jahren vertrieben wird. […] Das Hämostypticum Revici enthält neben geringen Mengen von Zitronensäure, Wasserstoffperoxid und n-Butanol. Da bei der Anwendung des Hämostypticums Revici immer wieder schwankende und nicht immer reproduzierbare Ergebnisse beobachtet wurden, wurden eingehende Untersuchungen über die Wirksamkeit aller drei Komponenten und Gemische derselben auf ihre Wirksamkeit hin untersucht. Dabei dienten als Modelle in erster Linie die bereits von Ennen entwickelten Tiermodelle der Ratten sowie ähnliche Versuche an der Schweineleber. Die Untersuchungen wurden zusätzlich ausgedehnt auf mögliche Metaboliten und Zersetzungsprodukte der Zitronensäure, nämlich Cis-Aconitsäure, Acetondicarbonsäure und Itakonsäure.
Die Wirksamkeit der Substanzen wurde sowohl oral als auch IV getestet mit Standardlösungen suspendiert in 0,9%-iger Kochsalzlösung bei Ratten nach Ennen (1981). Gemessen wurden Blutungszeit und Blutverlust in % der Abnahme. Tributylcitrat ergab eine Abnahme der Blutungszeit von 27% und eine Abnahme des Blutverlustes von 44%. Die entsprechenden Werte für Trihexylcitrat lagen bei 20 bzw. 24%. Die Werte für Aconit-tributylester bei 22 bzw. 16% und für Tricarballylsäure-tributylester bei 29 bzw. 8%.

Ratte [1] = settings: rat, in vivo, iv
Description: (§2) Hierbei ist zu beachten, daß bei der Ratte als maximale Volumenbelastung 20 ml/kg gelten.

Ratte [2] = assay: Acute toxicity (LD50, oral tolerance) in the rat; assay type: in vivo
Description: as §2

[3] = Acute toxicity (LD50, oral tolerance) in the rat; assay type: in vivo; settings: in vivo, applicant's own experiments
Description: as §2

Schweineleber = assay: Comparative haemostyptic efficacy of components, mixtures and esters in rat models and pig liver; assay type: in vivo, Ratten; settings: qualitative
Source text: as §1, with “Da bei der Anwendung des Hämostypticums Revici immer wieder schwankende und nicht immer reproduzierbare Ergebnisse beobachtet wurden, wurden eingehende Untersuchungen über die Wirksamkeit aller drei Komponenten und Gemische derselben auf ihre Wirksamkeit hin untersucht.” left out

Ratte [4] = settings: rat; Merck Index, 10th ed., no. 1513; cited from earlier work
Schweine = assay: Pig experiments: circulatory effect; assay type: in vivo; settings: pigs; amount of n-Butanol present in Hämostypticum Revici, given alone
Source text: Bei den Schweineversuchen hat sich beispielsweise gezeigt, daß die im Hämostypticum Revici vorhandene Menge n-Butanol für sich allein schon zu Kreislaufdepressionen führt. […] Die Wirksamkeit kann daher nicht dadurch erklärt werden, daß das TBC im Körper zu Zitronensäure und n-Butanol gespalten wird.

[5] = Toxicity of the new esters (test not described); settings: qualitative

CCCCOC(=O)CC(O)(CC(=O)OCCCC)C(=O)OCCCC [TBC, Tri-n-butylcitrat]
Abnahme der Blutungszeit (Rattenleber): 27%
Abnahme des Blutverlustes (Rattenleber): 44%
spontaner Exitus nach Infusion (Ratte [1]): 19,4 ml/kg
akute oder klinische manifeste Veränderungen (Ratte [2]; oral 10 ml/kg (printed as 10,4 mg/kg)): keinerlei akute oder klinische manifeste Veränderungen
akute oder klinische manifeste Veränderungen (Ratte [2]; oral 20 ml/kg (printed as 20,8 mg/kg)): keinerlei akute oder klinische manifeste Veränderungen
LD50 [3]: 20800 mg/kg

O=C(O)CC(=O)CC(=O)O [Acetondicarbonsäure]
hämostyptische Wirksamkeit (Schweineleber): praktisch wirkungslos

Wasserstoffperoxid [H202]
hämostyptische Wirksamkeit (Schweineleber): einen gewissen Effekt

CCCCO [n-Butanol]
hämostyptische Wirksamkeit (Schweineleber): eine gewisse hämostyptische Wirksamkeit; also recorded: einen gewissen Effekt
LD50 (Ratte [4]): 4,36 g/kg
Kreislaufwirkung (Schweine): Kreislaufdepressionen

CCCCOC(=O)C=C(CC(=O)OCCCC)C(=O)OCCCC [Aconit-tributylester]
hämostyptische Wirksamkeit (Schweineleber): durchaus interessante und für die Praxis brauchbare Wirkung
Abnahme der Blutungszeit (Rattenleber): 22%
Abnahme des Blutverlustes (Rattenleber): 16%
Toxizität [5]: niedriger Toxizität

CCCCOC(=O)CC(CC(=O)OCCCC)C(=O)OCCCC [Tricarballylsäure-tributylester]
hämostyptische Wirksamkeit (Schweineleber): durchaus interessante und für die Praxis brauchbare Wirkung
Abnahme der Blutungszeit (Rattenleber): 29%
Abnahme des Blutverlustes (Rattenleber): 8%
Toxizität [5]: niedriger Toxizität

C=C(CC(=O)O)C(=O)O [Itakonsäure]
hämostyptische Wirksamkeit (Schweineleber): praktisch wirkungslos

O=C(O)/C=C(/CC(=O)O)C(=O)O [Cis-Aconitsäure]
hämostyptische Wirksamkeit (Schweineleber): praktisch wirkungslos

CCCCCCOC(=O)CC(O)(CC(=O)OCCCCCC)C(=O)OCCCCCC [Trihexylcitrat]
Abnahme der Blutungszeit (Rattenleber): 20%
Abnahme des Blutverlustes (Rattenleber): 24%
Toxizität [5]: niedriger Toxizität

O=C(O)CC(O)(CC(=O)O)C(=O)O [Zitronensäure]
hämostyptische Wirksamkeit (Schweineleber): praktisch wirkungslos
